According to patent publication US8563589B2, “Methods of treating neuropathic pain with benzimidazole derivative agonists of PPARgamma” (priority 2009, dated 2013):

Tests used:
[1] = test system: Bennett neuropathic pain model; test: Bennett (chronic constriction injury) neuropathic pain model, cold plate / cold allodynia test; format: in vivo, rat; conditions: for latency time to removal of the affected paw from a cold plate, difference from vehicle control: dosed orally at 100 mg/kg, measured one hour later, cold allodynia test, ANOVA p<0.05 (FIG. 1)
Description: FIG. 1—Efficacy of PPARγ agonists Muraglitizar and Tesaglitizar in Bennett animal model for neuropathic pain. PPAR agonist compounds and positive control carbamazepine were dosed orally at 100 mg/kg, and pain behavior was measured one hour later with the cold allodynia test, as the latency time to removal of the affected paw from a cold plate. Statistical analysis of raw data was performed by analysis of variance (ANOVA), with significance threshold set at p<0.05. Analgesic activity was determined as a statistically significant increase in latency time to paw withdrawal in treated animals as compared to vehicle-treated animals. Comparisons for statistically significant differences in latency times were made between PPAR agonist compound-treated animals and vehicle controls, between carbamazepine-treated animals and vehicle controls, and between PPAR agonist compound-treated animals and carbamazepine-treated animals from the same experiment. All statistically significant differences between compared groups are indicated by the brackets, with *=p<0.05, and **=p<0.001.
FIG. 3—Effect of carbamazepine (+ control) and 3-(2,4-dichlorobenzyl)-2-methyl-N-(pentylsulfonyl)-3H-benzimidazole-5-carboxamide (“Atx” in Figure) on the latency to lift paw from the cold plate 60 min following compound injection, in rats with the Bennett model of neuropathic pain. Data represent mean±SEM. Statistical analysis of data as for FIG. 1; *=p<0.05.
These models are based on three surgical procedures: (i) the spinal nerve ligation (SNL) [Kim, S, and J. Chung, An experimental model for peripheral neuropathy produced by segmental spinal nerve ligation in the rat. Pain, 1992. 50: p. 355-363]; (ii) the partial sciatic nerve lesion (Seltzer) [Seltzer, Z., R. Dubner, and Y. Shir, A novel behavioral model of neuropathic pain disorders produced in rats by partial sciatic nerve injury. Pain, 1990. 43: p. 205-218]; (iii) and the chronic constriction injury [Bennett, G. and Y. Xie, A peripheral mononeuropathy in rat that produces disorders of pain sensation like those seen in man. Pain, 1988. 33: p. 87-107]. The Bennett model was used, as described below.
Young adult, male Sprague Dawley rats (200-250 g) from Harlan were used. Upon receipt, animals were assigned unique identification numbers (tail marked) and housed 2-3 per cage in suspended polycarbonate rat cages with filter paper covering mesh shelf. Rats were acclimated for up to 7 days prior to surgery. […]
The apparatus consists of a cold plate (Ugo Basile Hot/Cold Plate) measuring 25 (w)×37 (d)×16 (h) cm with a 10 cm thick aluminum circular plate. […] Baseline responses were measured on the day prior to drug administration. Each animal was tested by placing it on the cold plate (set to 4 C) and the latency of paw withdrawal was recorded. […]

type 2 diabetes = conditions: Phase II; quoted from Meinke et al., Annual Reports in Medicinal Chemistry (2006); cited from earlier work
neurogenic pain model = conditions: reported in WO2006085686; cited from earlier work

For `CCCCCS(=O)(=O)NC(=O)c1ccc2nc(C)n(Cc3ccc(Cl)cc3Cl)c2c1` [Atx, 3-(2,4-dichlorobenzyl)-2-methyl-N-(pentylsulfonyl)-3H-benzimidazole-5-carboxamide], the “latency to lift paw from the cold plate, analgesic activity compared to carbamazepine (+ control)” value ([1]; 60 min following compound injection, rats with the Bennett model (FIG. 3)) is given as “not significantly different from carbamazepine”, the “latency to lift paw from the cold plate, analgesic activity compared to vehicle” value ([1]; 60 min following compound injection, rats with the Bennett model, p<0.05 (FIG. 3)) is given as “analgesic activity which is significantly greater than vehicle alone” and the “advantage for type 2 diabetes in clinical trials” value (type 2 diabetes) is given as “no advantage [for type 2 diabetes] was demonstrated in clinical trials”.

For `O=C(Nc1ccccc1)c1cc([N+](=O)[O-])ccc1Cl` [GW9662, 2-chloro-5-nitro-N-phenylbenzamide], the “activity in a neurogenic pain model” value (neurogenic pain model) is given as “demonstrates activity in a neurogenic pain model”.

For `COc1ccc(OC(=O)N(CC(=O)O)Cc2ccc(OCCc3nc(-c4ccccc4)oc3C)cc2)cc1` [Muraglitazar], the “latency time to removal of the affected paw from a cold plate, difference from vehicle control” value [1] was “neither of Muraglitazar or Tesaglitazar showed any statistically significant difference from a vehicle control”.

In the case of `CCO[C@@H](Cc1ccc(OCCc2ccc(OS(C)(=O)=O)cc2)cc1)C(=O)O` [Tesaglitazar], the “latency time to removal of the affected paw from a cold plate, difference from vehicle control” value [1] is reported as “neither of Muraglitazar or Tesaglitazar showed any statistically significant difference from a vehicle control”.
